Reference: patent US11123313B2, “Methods and compositions for treating sleep apnea” (The Brigham and Women's Hospital, Inc., priority 2017, dated 2021)

Tested on: obstructive sleep apnea (OSA) human patients
Conditions: seven OSA patients, 2 additional nights with single drugs
Procedure: Subsequently, a placebo-controlled, double-blinded, randomized, crossover trial in 20 obstructive sleep apnea (OSA) human patients was performed. Participants received treatment (Atomoxetine 80 mg+Oxybutynin 5 mg) or placebo in randomized order 30 minutes before sleep. […] Data are expressed as median [25th-75th percentile]
Seven OSA patients were studied also on 2 additional nights in which the 2 drugs were administered alone (not in combination).
Group data was obtained using genioglossus electromyography in 16 out of 20 patients who took part to the original trial to determine the effect of Atomoxetine plus Oxybutynin (ato-oxy) on genioglossus muscle responsiveness. Muscle responsiveness reflects the change in genioglossus muscle electromyographic activity (percent of baseline) per change in esophageal pressure (Pes) swings during spontaneous breathing in non-REM sleep (see FIG. 10B for physiological context).

SMILES | AHI compared to placebo, drugs alone vs in combination
CCN(CC)CC#CCOC(=O)C(O)(c1ccccc1)C1CCCCC1 (centres unmarked) [Oxybutynin] | did not improve the AHI
CNCC[C@@H](Oc1ccccc1C)c1ccccc1 [Atomoxetine] | did not improve the AHI
